These results are taken from patent publication US4224342A, “Guanidinobenzoic acid compounds and process for preparing the same” (Ono Pharmaceutical Co., Ltd., priority 1977, dated 1980).

What is called LD50 is the dose at which mortality reaches 50%.

In series [1] the target is T1, plasmin (Homo sapiens, UniProt P00747).
T1 construct: from tissue; host or cells: human euglobulin (blood plasma fraction), with streptokinase added
The series can be described thus: In vitro inhibition of plasmin (human euglobulin, streptokinase, fibrinogen). It is filed as biochemical. The following applies: fibrinogen 4%, borate saline pH 7.4, 37° C., 30 minutes, read-out: 50% Inhibition Concentration, Anti-Plasmin.
Procedure: 0.1 ml of human euglobulin (10 fold dilution), 0.1 ml of streptokinase (2000 unit/ml), 0.4 ml of fibrinogen (4% solution), 0.3 ml of a 0.1 M borate saline buffer solution (pH 7.4) and 0.1 ml of a solution of each of the following compounds represented by the formula (I) at various concentrations was allowed to react at a temperature of 37° C. for 30 minutes.

Series [2] addresses T2, trypsin (Bos taurus, UniProt P00760).
T2 sequence (P00760 24-246): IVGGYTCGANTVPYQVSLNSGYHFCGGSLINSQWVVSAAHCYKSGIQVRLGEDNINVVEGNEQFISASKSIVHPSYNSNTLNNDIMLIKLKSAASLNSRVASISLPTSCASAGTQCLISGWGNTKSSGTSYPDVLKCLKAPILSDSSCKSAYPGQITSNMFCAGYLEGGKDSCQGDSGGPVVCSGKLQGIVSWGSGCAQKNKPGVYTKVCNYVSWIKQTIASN
The series can be described thus: In vitro inhibition of trypsin hydrolysis of p-tosylarginine methyl ester. It is filed as biochemical. As to conditions: trypsin 0.5 μg, p-tosylarginine methyl ester 20 mM, Tris-HCl pH 8.5, 37° C., 30 minutes; read-out: 50% Inhibition Concentration, Anti-Trypsin.

The nature of series [3]: Acute toxicity in rats. As to conditions: rat, in vivo, route and LD50 not given.
Series [4] in a line: Acute toxicity in mice. The following applies: mouse, in vivo, route not given.

T1 sequence (P00747 581-810 limits assumed): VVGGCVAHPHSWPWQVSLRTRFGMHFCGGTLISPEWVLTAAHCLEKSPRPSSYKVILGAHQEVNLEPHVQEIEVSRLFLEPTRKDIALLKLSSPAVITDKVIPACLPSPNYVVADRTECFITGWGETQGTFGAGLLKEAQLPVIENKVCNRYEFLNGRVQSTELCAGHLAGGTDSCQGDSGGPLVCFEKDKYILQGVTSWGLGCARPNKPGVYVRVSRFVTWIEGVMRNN
T1 sequence (P00747 97-580 partner limits assumed): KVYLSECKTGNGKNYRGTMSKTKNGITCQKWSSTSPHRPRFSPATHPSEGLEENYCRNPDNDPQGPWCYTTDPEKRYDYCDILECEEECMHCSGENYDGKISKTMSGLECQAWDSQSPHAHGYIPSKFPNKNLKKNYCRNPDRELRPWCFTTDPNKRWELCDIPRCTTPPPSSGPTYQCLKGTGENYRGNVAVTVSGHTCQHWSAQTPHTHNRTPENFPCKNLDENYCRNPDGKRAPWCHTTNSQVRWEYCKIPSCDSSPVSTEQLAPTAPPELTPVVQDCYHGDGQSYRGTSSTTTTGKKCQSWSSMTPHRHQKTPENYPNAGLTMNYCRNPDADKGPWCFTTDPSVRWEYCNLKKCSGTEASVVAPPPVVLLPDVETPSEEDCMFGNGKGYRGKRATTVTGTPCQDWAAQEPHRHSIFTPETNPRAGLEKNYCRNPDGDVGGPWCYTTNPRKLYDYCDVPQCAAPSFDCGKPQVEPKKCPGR

As for `N=C(N)Nc1ccc(C(=O)Oc2ccc(CC(=O)O)cc2)cc1` [P-(p-Guanidinobenzoyloxy)phenylacetic Acid], the figures for the IC50 in series [1] and in series [2] were 250 nM and 29 nM, respectively.

In the case of `COC(=O)Cc1ccc(OC(=O)c2ccc(NC(=N)N)cc2)cc1` [methyl p-(p-guanidinobenzoyloxy)phenyl acetate], the IC50 in series [1] was 220 nM; in series [2], 9 nM.

As to `CS(=O)(=O)O.N=C(N)Nc1ccc(C(=O)Oc2ccc(CC(=O)O)cc2)cc1` [4-(4-guanidinobenzoyloxy)phenylacetic acid mesylate], the LD50 in series [3] turned out to be 4400 mg/kg; in series [4] it was 4500 mg/kg.
